Assay results as given in ChEMBL document CHEMBL3885881, “DrugMatrix”.

Organism: Rattus norvegicus
Test: DrugMatrix - Regimen: Daily Repeat
Assay type: toxicity, organism-based, Sprague-Dawley
Parameters: regimen Daily Repeat, gender Male, age 6-8 weeks
Details: in vivo, po, route oral GAVAGE, vehicle 100 % WATER; for ABSOLUTE BASOPHIL / ABSOLUTE EOSINOPHIL / ABSOLUTE LYMPHOCYTE / ABSOLUTE MONOCYTE / ABSOLUTE SEGMENTED NEUTROPHIL / BASOPHIL / EOSINOPHIL / ERYTHROCYTE COUNT / HEMATOCRIT / HEMOGLOBIN / LEUKOCYTE COUNT / LYMPHOCYTE / MEAN CORPUSCULAR HEMOGLOBIN / MEAN CORPUSCULAR HEMOGLOBIN CONCENTRATION / MEAN CORPUSCULAR VOLUME / MONOCYTE / NEUTROPHIL / NUCLEATED RED BLOOD CELLS / PLATELET COUNT: tissue Blood; for ALANINE AMINOTRANSFERASE / ALBUMIN / ALKALINE PHOSPHATASE / ASPARTATE AMINOTRANSFERASE / BLOOD UREA NITROGEN / CARBON DIOXIDE / CHLORIDE / CHOLESTEROL / CREATINE PHOSPHOKINASE / CREATININE / GLUCOSE / LACTATE DEHYDROGENASE / LIPASE / PHOSPHORUS / POTASSIUM / SODIUM / TOTAL BILIRUBIN / TOTAL PROTEIN / URIC ACID: tissue Plasma
[1] = 0 mg/kg, 72 h, dose level Control, time 3 day
[2] = 0 mg/kg, 120 h, dose level Control, time 5 day
[3] = 2 mg/kg, 72 h, dose level Low, time 3 day

CC(C)(C)c1ccc(C(=O)CCCN2CCC(OC(c3ccccc3)c3ccccc3)CC2)cc1 [EBASTINE]
ABSOLUTE BASOPHIL [1]: 0 CELLS/uL
ABSOLUTE EOSINOPHIL [1]: 123.17 CELLS/uL
ABSOLUTE LYMPHOCYTE [1]: 12677.83 CELLS/uL
ABSOLUTE MONOCYTE [1]: 66.17 CELLS/uL
ABSOLUTE SEGMENTED NEUTROPHIL [1]: 1149.5 CELLS/uL
BASOPHIL [1]: 0%
EOSINOPHIL [1]: 0.83%
ERYTHROCYTE COUNT [1]: 5.26 x10E6/uL
HEMATOCRIT [1]: 33.07%
HEMOGLOBIN [1]: 13.43 G/DL
LEUKOCYTE COUNT [1]: 14.02 x10E3/uL
LYMPHOCYTE [1]: 90.17%
MEAN CORPUSCULAR HEMOGLOBIN [1]: 25.62 pg
MEAN CORPUSCULAR HEMOGLOBIN CONCENTRATION [1]: 40.65 G/DL
MEAN CORPUSCULAR VOLUME [1]: 63 fL
MONOCYTE [1]: 0.5%
NEUTROPHIL [1]: 8.5%
NUCLEATED RED BLOOD CELLS [1]: 0.17 /100WBC
PLATELET COUNT [1]: 1142.83 x10E3/uL
ALANINE AMINOTRANSFERASE [1]: 45.17 u/L
ALBUMIN [1]: 3.78 G/DL
ALKALINE PHOSPHATASE [1]: 340.17 u/L
ASPARTATE AMINOTRANSFERASE [1]: 77.33 u/L
BLOOD UREA NITROGEN [1]: 14.67 mg/dL
CARBON DIOXIDE [1]: 28.67 mmol/L
CHLORIDE [1]: 101.17 MEQ/L
CHOLESTEROL [1]: 77.67 mg/dL
CREATINE PHOSPHOKINASE [1]: 263.67 u/L
CREATININE [1]: 0.15 mg/dL
GLUCOSE [1]: 169.33 mg/dL
LACTATE DEHYDROGENASE [1]: 230 u/L
LIPASE [1]: 9.67 u/L
PHOSPHORUS [1]: 11.8 mg/dL
POTASSIUM [1]: 5.91 MEQ/L
SODIUM [1]: 142.88 MEQ/L
TOTAL BILIRUBIN [1]: 0.22 mg/dL
TOTAL PROTEIN [1]: 5.7 G/DL
URIC ACID [1]: 1.35 mg/dL
ABSOLUTE BASOPHIL [2]: 0 CELLS/uL
ABSOLUTE EOSINOPHIL [2]: 125 CELLS/uL
ABSOLUTE LYMPHOCYTE [2]: 13809 CELLS/uL
ABSOLUTE MONOCYTE [2]: 351 CELLS/uL
ABSOLUTE SEGMENTED NEUTROPHIL [2]: 1581.67 CELLS/uL
BASOPHIL [2]: 0%
EOSINOPHIL [2]: 0.67%
ERYTHROCYTE COUNT [2]: 5.53 x10E6/uL
HEMATOCRIT [2]: 34.83%
HEMOGLOBIN [2]: 13.9 G/DL
LEUKOCYTE COUNT [2]: 15.87 x10E3/uL
LYMPHOCYTE [2]: 87.5%
MEAN CORPUSCULAR HEMOGLOBIN [2]: 25.25 pg
MEAN CORPUSCULAR HEMOGLOBIN CONCENTRATION [2]: 40.08 G/DL
MEAN CORPUSCULAR VOLUME [2]: 63.05 fL
MONOCYTE [2]: 2.17%
NEUTROPHIL [2]: 9.67%
NUCLEATED RED BLOOD CELLS [2]: 0 /100WBC
PLATELET COUNT [2]: 1044 x10E3/uL
ALANINE AMINOTRANSFERASE [2]: 50.67 u/L
ALBUMIN [2]: 4.33 G/DL
ALKALINE PHOSPHATASE [2]: 395 u/L
ASPARTATE AMINOTRANSFERASE [2]: 86 u/L
BLOOD UREA NITROGEN [2]: 15.33 mg/dL
CARBON DIOXIDE [2]: 29.33 mmol/L
CHLORIDE [2]: 101.5 MEQ/L
CHOLESTEROL [2]: 71.33 mg/dL
CREATINE PHOSPHOKINASE [2]: 323.17 u/L
CREATININE [2]: 0.18 mg/dL
GLUCOSE [2]: 145.67 mg/dL
LACTATE DEHYDROGENASE [2]: 389.5 u/L
LIPASE [2]: 9.83 u/L
PHOSPHORUS [2]: 11.35 mg/dL
POTASSIUM [2]: 6.39 MEQ/L
SODIUM [2]: 142.77 MEQ/L
TOTAL BILIRUBIN [2]: 0.18 mg/dL
TOTAL PROTEIN [2]: 6.1 G/DL
URIC ACID [2]: 1.52 mg/dL
ABSOLUTE BASOPHIL [3]: 0 CELLS/uL
ABSOLUTE EOSINOPHIL [3]: 62.33 CELLS/uL
ABSOLUTE LYMPHOCYTE [3]: 12860.33 CELLS/uL
ABSOLUTE MONOCYTE [3]: 62.33 CELLS/uL
ABSOLUTE SEGMENTED NEUTROPHIL [3]: 1348.33 CELLS/uL
BASOPHIL [3]: 0%
EOSINOPHIL [3]: 0.33%
ERYTHROCYTE COUNT [3]: 5.22 x10E6/uL
HEMATOCRIT [3]: 34.2%
HEMOGLOBIN [3]: 13.67 G/DL
LEUKOCYTE COUNT [3]: 14.33 x10E3/uL
LYMPHOCYTE [3]: 89.67%
MEAN CORPUSCULAR HEMOGLOBIN [3]: 26.2 pg
MEAN CORPUSCULAR HEMOGLOBIN CONCENTRATION [3]: 40 G/DL
MEAN CORPUSCULAR VOLUME [3]: 65.5 fL
MONOCYTE [3]: 0.33%
NEUTROPHIL [3]: 9.67%
NUCLEATED RED BLOOD CELLS [3]: 0 /100WBC
PLATELET COUNT [3]: 1183.33 x10E3/uL
ALANINE AMINOTRANSFERASE [3]: 47.67 u/L
ALBUMIN [3]: 3.87 G/DL
ALKALINE PHOSPHATASE [3]: 322 u/L
ASPARTATE AMINOTRANSFERASE [3]: 75.33 u/L
BLOOD UREA NITROGEN [3]: 14.33 mg/dL
CARBON DIOXIDE [3]: 32.67 mmol/L
CHLORIDE [3]: 99.67 MEQ/L
CHOLESTEROL [3]: 75.67 mg/dL
CREATINE PHOSPHOKINASE [3]: 258.67 u/L
CREATININE [3]: 0.13 mg/dL
GLUCOSE [3]: 151 mg/dL
LACTATE DEHYDROGENASE [3]: 188 u/L
LIPASE [3]: 10 u/L
PHOSPHORUS [3]: 11.23 mg/dL
POTASSIUM [3]: 6.55 MEQ/L
SODIUM [3]: 141.57 MEQ/L
TOTAL BILIRUBIN [3]: 0.2 mg/dL
TOTAL PROTEIN [3]: 5.63 G/DL
URIC ACID [3]: 1.3 mg/dL
